In the data set the test system is Yap1 mRNA. Put plainly: Antisense inhibition of human Yap1 in SNU-449 cells by modified oligonucleotides, single dose (Example 5, RTS36584). The class given is cell-based. The protocol:
Modified oligonucleotides with additional chemistry modifications were designed to target a Yap1 nucleic acid and were tested for their effect on Yap1 mRNA level in SNU-449 cells. The modified oligonucleotides were tested in a series of experiments that had similar culture conditions. Cultured SNU-449 cells at a density of 10,000 cells per well were treated using free uptake with 2,000 nM of modified oligonucleotide. After a treatment period of approximately 48 hours, RNA was isolated from the cells and Yap1 mRNA levels were measured by quantitative real-time RTPCR. Human primer probe set RTS36584 was used to measure mRNA levels. Yap1 mRNA levels were normalized to total RNA content, as measured by RIBOGREEN®. Results are presented in the tables below as percent control of the amount of Yap1 mRNA relative to untreated control cells (% UTC). The modified oligonucleotides with percent control values marked with an asterisk (*) target the amplicon region of the primer probe set. Additional assays may be used to measure the potency and efficacy of the modified oligonucleotides targeting the amplicon region.
Several different chemistry modifications were tested, which are specified in the Chemistry Notation column of the tables below, wherein the notation “d” refers to a 2′-deoxyribose sugar, the notation “s” refers to a phosphorothioate (P═S) internucleoside linkage, the notation “k” refers to a cEt modified sugar, the notation “y” refers to a 2′-O-methyl ribose sugar, the notation “e” refers to a MOE modified sugar, and the notation “^mC” refers to a 5-methylcytosine.
“Start site” indicates the 5′-most nucleoside to which the gapmer is targeted in the human gene sequence. “Stop site” indicates the 3′-most nucleoside to which the gapmer is targeted human gene sequence. […] Activity of the modified oligonucleotide may be defined in a different experiment.

[1] abbreviates: Table 43 experiment, SNU-449 cells, 10,000 cells per well, free uptake, 2,000 nM, approximately 48 hours, RTS36584, Yap1 mRNA normalized to RIBOGREEN, relative to untreated control cells.
The mark [2] stands for this setting: Table 42 (separate experiment), SNU-449 cells, 10,000 cells per well, free uptake, 2,000 nM modified oligonucleotide, approximately 48 hours, RTS36584, normalized to RIBOGREEN, Yap1 mRNA relative to untreated control cells.
Setting [3] is: Table 52, Yap1 mRNA, modified oligonucleotides targeting SEQ ID NO: 1 and 2.
Setting [4] is: Table 51, Yap1 mRNA remaining as percent of untreated control (UT), SNU-449 cells, single dose.
Setting [5] is: Table 48, Yap1 mRNA level relative to untreated control, modified oligonucleotides targeting SEQ ID NO.: 1 and 2.
[6] abbreviates: Table 46, Yap1 mRNA as percent of untreated control, SNU-449 cells, single dose.
The mark [7] stands for this setting: Table 49, Yap1 mRNA level relative to untreated control, modified oligonucleotides targeting SEQ ID NO.: 1 and 2.
[8] abbreviates: Table 45, Yap1 mRNA as percent of untreated control, SNU-449 cells, single dose.
Where [9] appears, read: Table 44 experiment, SNU-449 cells, 10,000 cells per well, free uptake, 2,000 nM, approximately 48 hours, RTS36584, Yap1 mRNA normalized to RIBOGREEN, relative to untreated control cells.
Setting [10] is: Table 39, SNU-449 cells, 10,000 cells per well, free uptake, 2,000 nM oligonucleotide, approx. 48 hours, RTS36584, normalized to RIBOGREEN, Yap1 mRNA relative to untreated control.
Where [11] appears, read: Table 41, SNU-449 cells, 10,000 cells per well, free uptake, 2,000 nM modified oligonucleotide, approximately 48 hours, RTS36584, normalized to RIBOGREEN, Yap1 mRNA relative to untreated control cells.

Strand notation (5' to 3'): a small letter for the sugar, then the base; units joined by * are phosphorothioate-linked, units joined directly phosphodiester-linked; [ ] holds rarer units or linkages, { } end groups; capitals alone tell only the bases. e = 2'-O-(2-methoxyethyl) (MOE); k = constrained ethyl (cEt); [5mC] = 5-methylcytosine; d = 2'-deoxy (DNA); m = 2'-O-methyl

For “1198220 (kA*kA*d[5mC]*dA*d[5mC]*dT*dG*dA*dG*dG*dT*eA*eT*eA*kA*k[5mC]; antisense) [Compound 1198220]”, under setting [1], the “YAP1 (% UTC)” value is on record as 89 % UTC.

As for “1198234 (kG*k[5mC]*dT*dT*dT*dG*dG*dA*dA*dG*dA*eT*e[5mC]*eT*kG*kA) [Compound 1198234]”, the “YAP1 (% UTC)” value under setting [2] came to 45 % UTC.

Turning to “1200864 (kA*kA*k[5mC]*dT*dT*mU*dA*dA*dA*dG*dT*dG*dT*kA*kT*kG; antisense) [Compound 1200864]”, under setting [3], the “YAP1 (% UT)” value is reported as 84 % UT.

“1197262 (A_{ks}A_{ks}^{m}C_{ks}T_{ds}C_{ys}T_{ds}T_{ds}A_{ds}T_{ds}A_{ds}T_{ds}G_{ds}G_{ds}T_{ks}T_{ks}T_{k}; as printed in the source, key not given here) [Compound 1197262]”: the “YAP1 (% UT)” value under setting [4] is on record as 89 % UT.

For “1198295 (kT*kA*kG*dA*dG*dT*dA*dT*dG*dT*dG*dG*k[5mC]*eA*kA*eT; antisense) [Compound 1198295]”, the “YAP1 (% UT)” value under setting [5] amounted to 15 % UT.

For the substance “1198813 (antisense kA*kG*dT*dA*dT*dG*dT*dG*dG*d[5mC]*dA*kA*eT*kA*eA*kT) [Compound 1198813]”, the “YAP1 (% UT)” value under setting [6] stood at 55 % UT.

With “1198565 (antisense kT*kT*kA*d[5mC]*dA*dT*dT*dA*dG*dG*dA*dA*k[5mC]*kA*kA*eG) [Compound 1198565]”, the “YAP1 (% UT)” value under setting [7] turned out to be 53 % UT.

Take “1198919 (A_{ks}G^{m}C_{ds}A_{ds}^{m}C_{ds}T_{ds}T_{ds}T_{ds}T_{ds}A_{ds}^{m}C_{ds}A_{ks}T_{ds}T_{ks}A_{ds}G_{k}; modified gapmer, phosphorothioate, as printed in the source, key not given here) [Compound 1198919]”: the “YAP1 (% UTC)” value under setting [8] is 60 % UTC.

Take “1198227 (kA*kG*d[5mC]*dA*d[5mC]*dT*dT*dT*dT*dA*d[5mC]*eA*eT*eT*kA*kG; antisense) [Compound 1198227]”: under setting [2], the “YAP1 (% UTC)” value turned out to be 104 % UTC.

On to “1198904 (kT*kA*dT*dT*dA*dG*dA*dG*dT*dA*dT*kG*dT*kG*dG*k[5mC]; antisense) [Compound 1198904]”, for which the “YAP1 (% UTC)” value under setting [9] turned out to be 12 % UTC.

As to “1198509 (kT*k[5mC]*dT*dT*dA*dT*dA*dT*dG*dG*dT*eT*kT*eT*kG*eT; antisense) [Compound 1198509]”, under setting [9], the “YAP1 (% UTC)” value is 20 % UTC.

As for “1198258 (kA*kT*dA*dT*dT*dG*d[5mC]*dA*dA*dT*d[5mC]*eT*eG*eT*k[5mC]*kT; antisense) [Compound 1198258]”, under setting [1], the “YAP1 (% UTC)” value came to 52 % UTC.

With “1198421 (kT*dT*dA*dT*dA*dT*dG*dG*dT*dT*dT*kT*eG*kT*eG*kT; antisense) [Compound 1198421]”, the “YAP1 (% UTC)” value under setting [10] is reported as 36 % UTC.

Take “1198495 (antisense kA*kG*dT*dG*d[5mC]*dT*dT*dT*dG*dG*dA*eA*kG*eA*kT*e[5mC]) [Compound 1198495]”: the “YAP1 (% UTC)” value under setting [9] amounted to 22 % UTC.

“1198545 (antisense kA*kA*kA*dT*dT*dG*dT*d[5mC]*dT*d[5mC]*dA*dT*kG*k[5mC]*k[5mC]*eT) [Compound 1198545]”: the “YAP1 (% UT)” value under setting [7] was determined as 32 % UT.

Regarding “1198346 (kT*kA*kA*dT*dA*dT*dT*dG*d[5mC]*dA*dA*dT*k[5mC]*eT*kG*eT; antisense) [Compound 1198346]”, the “YAP1 (% UT)” value under setting [5] turned out to be 40 % UT.

Take “1198640 (kT*kT*dA*dG*dA*dG*dT*dA*dT*dG*dT*dG*kG*e[5mC]*kA*eA; antisense) [Compound 1198640]”: under setting [11], the “YAP1 (% UTC)” value is listed as 26 % UTC.

In the case of “1198913 (kT*kT*dA*d[5mC]*dA*dT*dT*dA*dG*dG*dA*kA*d[5mC]*kA*dA*kG; antisense) [Compound 1198913]”, under setting [8], the “YAP1 (% UTC)” value is 86 % UTC.

Regarding “1197290 (kG*kA*kG*dG*mU*dA*dT*dA*dA*d[5mC]*dT*dG*dG*kG*k[5mC]*kA) [Compound 1197290]”, under setting [4], the “YAP1 (% UT)” value came out at 37 % UT.

With “1198693 (antisense kA*kT*dG*dT*dA*dA*dT*dA*dT*dT*dG*d[5mC]*kA*eA*kT*e[5mC]) [Compound 1198693]”, the “YAP1 (% UTC)” value under setting [2] was 92 % UTC.

As to “1198337 (kT*k[5mC]*kT*dT*dA*dT*dA*dT*dG*dG*dT*dT*kT*eT*kG*eT; antisense) [Compound 1198337]”, under setting [7], the “YAP1 (% UT)” value was found to be 26 % UT.

On to “1198638 (kA*kG*dA*dG*dT*dA*dT*dG*dT*dG*dG*d[5mC]*kA*eA*kT*eA; antisense) [Compound 1198638]”, for which the “YAP1 (% UTC)” value under setting [11] was 18 % UTC.

In the case of “1198911 (kG*kA*dG*dG*dT*dA*dT*dA*dA*d[5mC]*dT*kG*dG*kG*d[5mC]*kA; antisense) [Compound 1198911]”, the “YAP1 (% UTC)” value under setting [8] was found to be 26 % UTC.

With “1197316 (kT*kA*kA*dG*mU*dA*dA*dG*dG*dT*dT*dT*d[5mC]*k[5mC]*k[5mC]*kA; antisense) [Compound 1197316]”, under setting [4], the “YAP1 (% UT)” value stood at 46 % UT.

Take “1198482 (antisense kA*k[5mC]*dT*dT*dT*dT*dA*d[5mC]*dA*dT*dT*eA*kG*eG*kA*eA) [Compound 1198482]”: the “YAP1 (% UTC)” value under setting [1] came out at 63 % UTC.

“1198862 (kG*kA*d[5mC]*dA*dA*d[5mC]*dT*d[5mC]*dT*dT*dA*kT*eA*kT*eG*kG; antisense) [Compound 1198862]”: for the setting “Yap1 mRNA, percent of untreated control, modified oligonucleotides targeting SEQ ID NO: 1 and 2, Table 47”, the “YAP1 (% UT)” value is given as 72 % UT.

Consider “1198554 (antisense kT*kT*kA*dG*dA*dG*dT*dA*dT*dG*dT*dG*kG*k[5mC]*kA*eA) [Compound 1198554]”, for which, under setting [7], the “YAP1 (% UT)” value was 16 % UT.

Consider “1198521 (kA*kT*dG*dT*dA*dA*dT*dA*dT*dT*dG*e[5mC]*kA*eA*kT*e[5mC]; antisense) [Compound 1198521]”, for which the “YAP1 (% UTC)” value under setting [9] is 44 % UTC.

As to “1198384 (kT*dA*dT*dT*dA*dG*dA*dG*dT*dA*dT*kG*eT*kG*eG*k[5mC]; antisense) [Compound 1198384]”, the “YAP1 (% UTC)” value under setting [10] worked out at 6 % UTC.

Consider “1200867 (kA*kA*kG*dT*dA*mA*dG*dG*dT*dT*dT*d[5mC]*d[5mC]*k[5mC]*kA*kG; antisense) [Compound 1200867]”, for which, under setting [3], the “YAP1 (% UT)” value turned out to be 38 % UT.

As for “1198908 (kT*kA*dT*dA*dA*d[5mC]*dT*dG*dG*dG*d[5mC]*kA*dA*kA*dT*kT; antisense) [Compound 1198908]”, the “YAP1 (% UTC)” value under setting [8] is recorded as 124 % UTC.

As for “1198910 (kA*kG*dG*dT*dA*dT*dA*dA*d[5mC]*dT*dG*kG*dG*k[5mC]*dA*kA; antisense) [Compound 1198910]”, the “YAP1 (% UTC)” value under setting [8] was 40 % UTC.

Turning to “1198866 (kT*kA*dA*dT*dA*dT*dT*dG*d[5mC]*dA*dA*kT*e[5mC]*kT*eG*kT; antisense) [Compound 1198866]”, the “YAP1 (% UT)” value under setting [6] is on record as 60 % UT.

With “1197259 (kA*kT*kA*dT*mG*dG*dT*dT*dT*dT*dG*dT*dG*kT*kG*kT) [Compound 1197259]”, the “YAP1 (% UT)” value under setting [4] was determined as 59 % UT.

For the substance “1200859 (kA*kA*kA*dG*dT*mG*dT*dA*dT*dG*dT*d[5mC]*dA*kG*kA*kA; antisense) [Compound 1200859]”, the “YAP1 (% UT)” value under setting [3] was determined as 28 % UT.

Regarding “1198715 (kA*eT*kT*dG*dT*d[5mC]*dT*d[5mC]*dA*dT*dG*d[5mC]*e[5mC]*eT*kT*kA; antisense) [Compound 1198715]”, the “YAP1 (% UTC)” value (Table 40 (separate experiment), SNU-449 cells, 10,000 cells per well, free uptake, 2,000 nM oligonucleotide, approx. 48 hours, RTS36584, normalized to RIBOGREEN, Yap1 mRNA relative to untreated control) amounted to 33 % UTC.

Turning to “1197243 (antisense kA*kA*k[5mC]*dA*mC*dT*dG*dA*dG*dG*dT*dA*dT*kA*kA*k[5mC]) [Compound 1197243]”, the “YAP1 (% UT)” value under setting [4] came out at 81 % UT.

On to “1198648 (kA*kG*dG*dT*dA*dT*dA*dA*d[5mC]*dT*dG*dG*kG*e[5mC]*kA*eA) [Compound 1198648]”, for which the “YAP1 (% UTC)” value under setting [2] worked out at 43 % UTC.
